Measurements: patent US9149038B2, “4-amino-6-(heterocyclic)picolinates and 6-amino-2-(heterocyclic)pyrimidine-4-carboxylates and their use as herbicides” (Dow AgroSciences LLC, priority 2013, dated 2015)
Read-outs that look alike come from different tables or passages of the source.

System: Direct Seeded Rice and weed species
Assay: Postemergence herbicidal activity in direct seeded rice, visual rating after 20-22 days and probit GR20/GR50/GR80/GR90 (Table 14)
Assay type: in vivo
Details: for pest or weed control at 17.5 g/ha / pest or weed control at 35 g/ha / pest or weed control at 70 g/ha: post-emergence, 504 h, postemergence; for pest or weed control at 17.5 g/ha: 17.5 g ai/ha; for pest or weed control at 35 g/ha: 35 g ai/ha; for pest or weed control at 70 g/ha: 70 g ai/ha
Source text: Herbicidal evaluations were made visually on a scale of 0 to 100 where 0 represents no activity and 100 represents complete plant death. Seeds or nutlets of the desired test plant species were planted in a soil matrix prepared by mixing a loam soil (43 percent silt, 19 percent clay, and 38 percent sand, with a pH of about 8.1 and an organic matter content of about 1.5 percent) and river sand in an 80 to 20 ratio. The soil matrix was contained in plastic pots with a surface area of 139.7 cm^2. When required to ensure good germination and healthy plants, a fungicide treatment and/or other chemical or physical treatment was applied. The plants were grown for 10-17 d in a greenhouse with an approximate 14-h photoperiod which was maintained at about 29° C. during the day and 26° C. during the night. Nutrients and water were added on a regular basis and supplemental lighting was provided with overhead metal halide 1000-Watt lamps as necessary. The plants were employed for testing when they reached the second or third true leaf stage. A weighed amount, determined by the highest rate to be tested, of each test compound was placed in 25 mL glass vials and dissolved in a volume of 97:3 v/v acetone-DMSO to obtain 12× stock solutions. […] The concentrated stock solutions were added to the spray solutions so that the final acetone and DMSO concentrations were 16.2% and 0.5%, respectively. Spray solutions were diluted to the appropriate final concentrations with the addition of 10 mL of an aqueous mixture of 1.5% (v/v) Agri-dex crop oil concentrate. The final spray solutions contained 1.25% (v/v) Agri-dex crop oil concentrate. Compound requirements are based upon a 12 mL application volume at a rate of 187 L/ha. Formulated compounds were applied to the plant material with an overhead Mandel track sprayer equipped with […] nozzles calibrated to deliver 187 L/ha over an application area of 0.503 square meters (m^2) at a spray height of 18 inches (43 cm) above average plant canopy height. Control plants were sprayed in the same manner with the solvent blank. The treated plants and control plants were placed in a greenhouse as described above and watered by sub-irrigation to prevent wash-off of the test compounds. After 20-22 days, the condition of the test plants, compared with that of the untreated plants, was determined visually and scored on a scale of 0 to 100 percent where 0 corresponds to no injury and 100 corresponds to complete kill and are presented as indicated in Table 4. By applying the well-accepted probit analysis as described by J. Berkson in Journal of the American Statistical Society, 48, 565 (1953) and by D. Finney in “Probit Analysis” Cambridge University Press (1952), herbicidal injury of a specific compound at various rates can be used to calculate GR20, GR50, GR80 and GR90 values, which are defined as growth reduction factors that correspond to the effective dose of herbicide required to provide plant growth reduction (GR) of 20 percent, 50 percent, 80 percent and 90 percent, respectively. Probit analysis was applied to data collected from multiple dose rates of individual compounds utilizing the procedures explained in the following examples. The data for some of the dose rates and analysis of all of the dose rates are captured in the following tables.

[1] = BRAPP (broadleaf signalgrass, Brachiaria platyphylla), read-out: Visual Growth Reduction (%) 21 Days After Application BRAPP
[2] = CYPDI (small-flower flatsedge, Cyperus difformis), read-out: Visual Growth Reduction (%) 21 Days After Application CYPDI
[3] = CYPES (yellow nutsedge, Cyperus esculentus), read-out: Visual Growth Reduction (%) 21 Days After Application CYPES
[4] = CYPIR (rice flatsedge, Cyperus iria), read-out: Visual Growth Reduction (%) 21 Days After Application CYPIR
[5] = DIGSA (large crabgrass, Digitaria sanguinalis), read-out: Visual Growth Reduction (%) 21 Days After Application DIGSA
[6] = ECHCG (barnyardgrass, Echinochloa crus-galli), read-out: Visual Growth Reduction (%) 21 Days After Application ECHCG
[7] = ECHCO (junglerice, Echinochloa colonum), read-out: Visual Growth Reduction (%) 21 Days After Application ECHCO
[8] = LEFCH (Chinese sprangletop, Leptochloa chinensis), read-out: Visual Growth Reduction (%) 21 Days After Application LEFCH
[9] = ORYSJ (Oryza sativa, rice crop), read-out: Visual Growth Reduction (%) 21 Days After Application ORYSJ
[10] = ORYSK (Oryza sativa, rice crop), read-out: Visual Growth Reduction (%) 21 Days After Application ORYSK
[11] = SCPJU (Japanese bulrush, Schoenoplectus juncoides Roxb.), read-out: Visual Growth Reduction (%) 21 Days After Application SCPJU
[12] = SEBEX (hemp sesbania, Sesbania exaltata), read-out: Visual Growth Reduction (%) 21 Days After Application SEBEX

COC(=O)c1nc(-c2ccc3c(c2F)OC(F)(F)O3)c(F)c(N)c1Cl [Compound 10]
GR50 BRAPP (BRAPP (Brachiaria platyphylla), probit analysis, dose for 50 percent growth reduction): 7 g ai/ha
GR80 BRAPP (BRAPP (Brachiaria platyphylla), probit analysis, dose for 80 percent growth reduction): 16 g ai/ha
GR90 BRAPP (BRAPP (Brachiaria platyphylla), probit analysis, dose for 90 percent growth reduction): 24 g ai/ha
GR50 CYPDI (CYPDI (Cyperus difformis), probit analysis, dose for 50 percent growth reduction): 4 g ai/ha
GR80 CYPDI (CYPDI (Cyperus difformis), probit analysis, dose for 80 percent growth reduction): 8 g ai/ha
GR90 CYPDI (CYPDI (Cyperus difformis), probit analysis, dose for 90 percent growth reduction): 10 g ai/ha
GR50 CYPES (CYPES (Cyperus esculentus), probit analysis, dose for 50 percent growth reduction): <18 g ai/ha
GR80 CYPES (CYPES (Cyperus esculentus), probit analysis, dose for 80 percent growth reduction): <18 g ai/ha
GR90 CYPES (CYPES (Cyperus esculentus), probit analysis, dose for 90 percent growth reduction): <18 g ai/ha
GR50 CYPIR (CYPIR (Cyperus iria), probit analysis, dose for 50 percent growth reduction): 6 g ai/ha
GR80 CYPIR (CYPIR (Cyperus iria), probit analysis, dose for 80 percent growth reduction): 10 g ai/ha
GR90 CYPIR (CYPIR (Cyperus iria), probit analysis, dose for 90 percent growth reduction): 13 g ai/ha
GR50 DIGSA (DIGSA (Digitaria sanguinalis), probit analysis, dose for 50 percent growth reduction): 1 g ai/ha
GR80 DIGSA (DIGSA (Digitaria sanguinalis), probit analysis, dose for 80 percent growth reduction): 8 g ai/ha
GR90 DIGSA (DIGSA (Digitaria sanguinalis), probit analysis, dose for 90 percent growth reduction): 21 g ai/ha
GR50 ECHCG (ECHCG (Echinochloa crus-galli), probit analysis, dose for 50 percent growth reduction): 10 g ai/ha
GR80 ECHCG (ECHCG (Echinochloa crus-galli), probit analysis, dose for 80 percent growth reduction): 14 g ai/ha
GR90 ECHCG (ECHCG (Echinochloa crus-galli), probit analysis, dose for 90 percent growth reduction): 16 g ai/ha
GR50 ECHCO (ECHCO (Echinochloa colonum), probit analysis, dose for 50 percent growth reduction): 6 g ai/ha
GR80 ECHCO (ECHCO (Echinochloa colonum), probit analysis, dose for 80 percent growth reduction): 14 g ai/ha
GR90 ECHCO (ECHCO (Echinochloa colonum), probit analysis, dose for 90 percent growth reduction): 21 g ai/ha
GR50 LEFCH (LEFCH (Leptochloa chinensis), probit analysis, dose for 50 percent growth reduction): 12 g ai/ha
GR80 LEFCH (LEFCH (Leptochloa chinensis), probit analysis, dose for 80 percent growth reduction): 20 g ai/ha
GR90 LEFCH (LEFCH (Leptochloa chinensis), probit analysis, dose for 90 percent growth reduction): 27 g ai/ha
GR20 ORYSJ (ORYSJ (Oryza sativa, rice crop), probit analysis, dose for 20 percent growth reduction): 14 g ai/ha
GR20 ORYSK (ORYSK (Oryza sativa, rice crop), probit analysis, dose for 20 percent growth reduction): 20 g ai/ha
GR50 SCPJU (SCPJU (Schoenoplectus juncoides Roxb.), probit analysis, dose for 50 percent growth reduction): 0.0002 g ai/ha
GR80 SCPJU (SCPJU (Schoenoplectus juncoides Roxb.), probit analysis, dose for 80 percent growth reduction): 0.0207 g ai/ha
GR90 SCPJU (SCPJU (Schoenoplectus juncoides Roxb.), probit analysis, dose for 90 percent growth reduction): 0.268 g ai/ha
GR50 SEBEX (SEBEX (Sesbania exaltata), probit analysis, dose for 50 percent growth reduction): 3 g ai/ha
GR80 SEBEX (SEBEX (Sesbania exaltata), probit analysis, dose for 80 percent growth reduction): 8 g ai/ha
GR90 SEBEX (SEBEX (Sesbania exaltata), probit analysis, dose for 90 percent growth reduction): 13 g ai/ha
pest or weed control at 17.5 g/ha [1]: 85 to 94%
pest or weed control at 35 g/ha [1]: 95 to 100%
pest or weed control at 70 g/ha [1]: 95 to 100%
pest or weed control at 17.5 g/ha [2]: 95 to 100%
pest or weed control at 35 g/ha [2]: 95 to 100%
pest or weed control at 70 g/ha [2]: 95 to 100%
pest or weed control at 17.5 g/ha [3]: 95 to 100%
pest or weed control at 35 g/ha [3]: 95 to 100%
pest or weed control at 70 g/ha [3]: 95 to 100%
pest or weed control at 17.5 g/ha [4]: 95 to 100%
pest or weed control at 35 g/ha [4]: 95 to 100%
pest or weed control at 70 g/ha [4]: 95 to 100%
pest or weed control at 17.5 g/ha [5]: 95 to 100%
pest or weed control at 35 g/ha [5]: 85 to 94%
pest or weed control at 70 g/ha [5]: 95 to 100%
pest or weed control at 17.5 g/ha [6]: 95 to 100%
pest or weed control at 35 g/ha [6]: 95 to 100%
pest or weed control at 70 g/ha [6]: 95 to 100%
pest or weed control at 17.5 g/ha [7]: 85 to 94%
pest or weed control at 35 g/ha [7]: 95 to 100%
pest or weed control at 70 g/ha [7]: 95 to 100%
pest or weed control at 17.5 g/ha [8]: 60 to 74%
pest or weed control at 35 g/ha [8]: 95 to 100%
pest or weed control at 70 g/ha [8]: 95 to 100%
pest or weed control at 17.5 g/ha [9]: 0 to 29%
pest or weed control at 35 g/ha [9]: 60 to 74%
pest or weed control at 70 g/ha [9]: 75 to 84%
pest or weed control at 17.5 g/ha [10]: 0 to 29%
pest or weed control at 35 g/ha [10]: 45 to 59%
pest or weed control at 70 g/ha [10]: 75 to 84%
pest or weed control at 17.5 g/ha [11]: 95 to 100%
pest or weed control at 35 g/ha [11]: 95 to 100%
pest or weed control at 70 g/ha [11]: 95 to 100%
pest or weed control at 17.5 g/ha [12]: 95 to 100%
pest or weed control at 35 g/ha [12]: 95 to 100%
pest or weed control at 70 g/ha [12]: 95 to 100%
